The results in this text go back to US11529347B2, “SHP2 phosphatase inhibitors and methods of use thereof” (Relay Therapeutics, Inc., priority 2016, dated 2022).

SMILES strings stand for the structures. pIC50: −log10 of the molar value.

Chain of SHP2 (Q06124 whole entry): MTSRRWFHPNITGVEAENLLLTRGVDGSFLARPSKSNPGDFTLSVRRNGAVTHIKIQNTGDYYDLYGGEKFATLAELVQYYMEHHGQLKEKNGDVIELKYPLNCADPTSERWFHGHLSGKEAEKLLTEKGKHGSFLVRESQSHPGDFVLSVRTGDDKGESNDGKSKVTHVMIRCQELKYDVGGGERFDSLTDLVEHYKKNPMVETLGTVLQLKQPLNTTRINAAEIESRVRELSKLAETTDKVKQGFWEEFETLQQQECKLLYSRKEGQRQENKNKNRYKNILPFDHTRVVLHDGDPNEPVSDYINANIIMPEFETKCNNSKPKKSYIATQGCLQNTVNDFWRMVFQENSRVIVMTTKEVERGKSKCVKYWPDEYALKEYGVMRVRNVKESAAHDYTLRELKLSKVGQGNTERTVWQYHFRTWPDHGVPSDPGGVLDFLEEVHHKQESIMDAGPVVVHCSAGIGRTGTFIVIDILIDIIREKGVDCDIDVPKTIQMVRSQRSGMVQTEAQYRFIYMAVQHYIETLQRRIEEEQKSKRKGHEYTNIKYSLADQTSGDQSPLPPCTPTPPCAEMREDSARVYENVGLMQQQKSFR

The test addresses SHP2 (Homo sapiens (Human), UniProt Q06124). Kind of test: SHP2 Allosteric Inhibition Assay (DiFMUP prompt fluorescence). It counts as biochemical. As to conditions: 0.25 nM SHP2 activated with 0.5 μM peptide IRS1_pY1172(dPEG8)pY1222; substrate DiFMUP 100 μM. An excerpt:
SHP2 is allosterically activated through binding of bis-tyrosyl-phosphorylated peptides to its Src Homology 2 (SH2) domains. The latter activation step leads to the release of the auto-inhibitory interface of SHP2, which in turn renders the SHP2 protein tyrosine phosphatase (PTP) active and available for substrate recognition and reaction catalysis. The catalytic activity of SHP2 was monitored using the surrogate substrate DiFMUP in a prompt fluorescence assay format.
The inhibitor dose response curves were analyzed using normalized IC50 regression curve fitting with control based normalization.
Consider `CC1(N)CCN(c2cnc3c(-c4ccccc4Cl)n[nH]c3n2)CC1` [Compound 6], for which the pIC50 is greater than 5.00.

Consider `Clc1ccccc1-c1n[nH]c2nc(N3C4CCCC3CC4)cnc12` [Compound 8], for which the pIC50 is 4.00 to 5.00.

The compound `N[C@H]1CC12CCN(c1cnc3c(-c4ccccc4Cl)n[nH]c3n1)CC2` [Compound 9] showed a pIC50 greater than 5.00.

Turning to `CC1(CN)CCN(c2cnc3c(-c4cccc(Cl)c4Cl)n[nH]c3n2)CC1` [Compound 10], the pIC50 was greater than 5.00.

For the compound `O=C1NCC2(CCN(c3cnc4c(-c5ccccc5Cl)n[nH]c4n3)CC2)N1` [Compound 11], the negative-log IC50 (pIC50) was 4.00 to 5.00.

In turn, `NC(=O)C1(N)CCN(c2cnc3c(-c4cccc(Cl)c4)n[nH]c3n2)CC1` [Compound 12] had a pIC50 greater than 5.00.

Consider `CC1(CN)CCCN(c2cnc3c(-c4ccccc4Cl)n[nH]c3n2)CC1` (stereo not shown) [Compound 13], for which the pIC50 is greater than 5.00.

In turn, `CC(C)(N)C1CCN(c2cnc3c(-c4ccccc4Cl)n[nH]c3n2)CC1` [Compound 14] showed a pIC50 of 4.00 to 5.00.

Turning to `CC1(CN)CCN(c2cnc3c(-c4ccccc4)n[nH]c3n2)CC1` [Compound 15], the pIC50 is greater than 5.00.

As to `N[C@@H]1CCCC12CCN(c1cnc3c(-c4ccccc4Cl)n[nH]c3n1)CC2` [Compound 16], the pIC50 is greater than 5.00.

As to `CC1(N)CCN(c2cnc3c(-c4ccc(Cl)cc4)n[nH]c3n2)CC1` [Compound 17], the pIC50 is greater than 5.00.

`NC1CC12CCN(c1cnc3c(-c4ccccc4Cl)n[nH]c3n1)CC2` (stereo not shown) [Compound 18] showed a pIC50 greater than 5.00.

`CC1(CN)CCN(c2cnc3c(-c4ccncc4)n[nH]c3n2)CC1` [Compound 19] gave a negative-log IC50 (pIC50) greater than 5.00.

The compound `NCC1(O)CCCN(c2cnc3c(-c4ccccc4Cl)n[nH]c3n2)CC1` (stereo not shown) [Compound 20] gave a pIC50 greater than 5.00.

`CC1(CN)CCN(c2cnc3c(-c4ncccc4Cl)n[nH]c3n2)CC1` [Compound 22]: the pIC50 was 4.00 to 5.00.

`NCC1(F)CCN(c2cnc3c(-c4ccccc4Cl)n[nH]c3n2)CC1` [Compound 24] showed a pIC50 greater than 5.00.

On to `NCC1(O)CCN(c2cnc3c(-c4cccc(Cl)c4)n[nH]c3n2)CC1` [Compound 25], for which the pIC50 was greater than 5.00.

With `N[C@H]1CCC12CCN(c1cnc3c(-c4ccccc4Cl)n[nH]c3n1)CC2` [Compound 26], the pIC50 was greater than 5.00.

Take `NCC1CCN(c2cnc3c(-c4cccc(Cl)c4)n[nH]c3n2)C1` (stereo not shown) [Compound 27]: the pIC50 is greater than 5.00.

For `NC1CCC12CCN(c1cnc3c(-c4ccccc4Cl)n[nH]c3n1)CC2` (stereo not shown) [Compound 28], the pIC50 is greater than 5.00.

`CC1(CN)CCN(c2cnc3c(-c4ccc(Cl)cc4)n[nH]c3n2)CC1` [Compound 29] had a pIC50 greater than 5.00.

`NC(CO)C1CCN(c2cnc3c(-c4ccccc4Cl)n[nH]c3n2)CC1` (stereo not shown) [Compound 30] gave a pIC50 greater than 5.00.

Consider `CC1(N)CCN(c2cnc3c(-c4cccc(Cl)c4)n[nH]c3n2)CC1` [Compound 31], for which the pIC50 is greater than 5.00.

In turn, `COC1(CN)CCN(c2cnc3c(-c4ccccc4Cl)n[nH]c3n2)CC1` [Compound 32] showed a negative logarithm of the IC50 (pIC50) greater than 5.00.

As to `N[C@H]1CCN(c2cnc3c(-c4ccccc4Cl)n[nH]c3n2)C[C@@H]1O` [Compound 33], the pIC50 was greater than 5.00.

As to `CC1(CN)CCN(c2cnc3c(-c4cccc(Cl)c4Br)n[nH]c3n2)CC1` [Compound 34], the pIC50 is greater than 5.00.

Consider `N[C@H]1CCCC12CCN(c1cnc3c(-c4ccccc4Cl)n[nH]c3n1)CC2` [Compound 35], for which the negative logarithm of the IC50 (pIC50) was greater than 5.00.

For `CNCC1(C)CCN(c2cnc3c(-c4ccccc4Cl)n[nH]c3n2)CC1` [Compound 36], the pIC50 was 4.00 to 5.00.

As to `N[C@@H]1CCC12CCN(c1cnc3c(-c4ccccc4Cl)n[nH]c3n1)CC2` [Compound 37], the pIC50 was 4.00 to 5.00.

`NC1CCN(c2cnc3c(-c4ccccc4Cl)n[nH]c3n2)CC1` [Compound 38] showed a pIC50 greater than 5.00.

`COc1cccc(-c2n[nH]c3nc(N4CCC(C)(CN)CC4)cnc23)c1Cl` [Compound 39] had a pIC50 greater than 5.00.

As for `NCC1CCCN(c2cnc3c(-c4ccccc4Cl)n[nH]c3n2)CC1` (stereo not shown) [Compound 40], the pIC50 was greater than 5.00.

Turning to `Clc1ccccc1-c1n[nH]c2nc(N3CCC4(CCCN4)CC3)cnc12` [Compound 41], the pIC50 was greater than 5.00.

In turn, `COCC1(CN)CCN(c2cnc3c(-c4ccccc4Cl)n[nH]c3n2)CC1` [Compound 42] had a pIC50 greater than 5.00.

Compound `CC1(CN)CCN(c2cnc3c(-c4ccccc4Cl)n[nH]c3n2)CC1` [Compound 43] gave a pIC50 greater than 5.00.

Regarding `Clc1ccccc1-c1n[nH]c2nc(N3CC4CNCC4C3)cnc12` (stereo not shown) [Compound 44], the pIC50 was greater than 5.00.

Compound `Clc1cccc(-c2n[nH]c3nc(N4CCCCC4)cnc23)c1Cl` [Compound 45] gave a negative logarithm of the IC50 (pIC50) of less than 4.00.

Take `NCC1(N)CCN(c2cnc3c(-c4ccccc4Cl)n[nH]c3n2)CC1` [Compound 46]: the pIC50 was greater than 5.00.

As to `CC(N)C1CCN(c2cnc3c(-c4ccccc4Cl)n[nH]c3n2)CC1` (stereo not shown) [Compound 47], the pIC50 is greater than 5.00.

In turn, `CC1(CN)CCN(c2cnc3c(-c4cccc(Cl)c4F)n[nH]c3n2)CC1` [Compound 48] had a pIC50 greater than 5.00.

Turning to `N[C@@H]1CC12CCN(c1cnc3c(-c4ccccc4Cl)n[nH]c3n1)CC2` [Compound 49], the pIC50 is 4.00 to 5.00.

As for `CC1(CN)CCN(c2cnc3c(-c4cccc(Cl)c4)n[nH]c3n2)CC1` [Compound 50], the pIC50 was greater than 5.00.

In the case of `NCC1(CO)CCN(c2cnc3c(-c4ccccc4Cl)n[nH]c3n2)CC1` [Compound 51], the pIC50 is greater than 5.00.

As to `NCC1(O)CCN(c2cnc3c(-c4ccccc4Cl)n[nH]c3n2)CC1` [Compound 52], the pIC50 is greater than 5.00.

`O=C1NCC2(CCCN(c3cnc4c(-c5ccccc5Cl)n[nH]c4n3)CC2)O1` (stereo not shown) [Compound 53] gave a pIC50 of 4.00 to 5.00.

The compound `COc1ccccc1-c1n[nH]c2nc(N3CCC(C)(CN)CC3)cnc12` [Compound 54] showed a pIC50 greater than 5.00.

Consider `Clc1ccccc1-c1n[nH]c2nc(N3CCC4(CCNC4)C3)cnc12` (stereo not shown) [Compound 55], for which the pIC50 was 4.00 to 5.00.

Turning to `NC1(CO)CCN(c2cnc3c(-c4ccccc4Cl)n[nH]c3n2)CC1` [Compound 56], the pIC50 was greater than 5.00.

In turn, `N[C@@H]1[C@H]2CN(c3cnc4c(-c5cccc(Cl)c5)n[nH]c4n3)C[C@@H]12` [Compound F21] had a pIC50 greater than 5.00.
